The source of these data is US9365851B2, “Spalt-like transcription factor 4 (SALL4) and uses thereof” (National University of Singapore, priority 2011, dated 2016).

In one data set the test system is SNU-398 cells. Description: Cell viability assay (MTT/MTS). In kind it is cell-based, human. The settings on record: for cell viability upon SALL4 knockdown: SNU-398, MTS; for cell viability / number of viable cells: SNU-398 (high SALL4), 72 h. The protocol:
Cell viability was determined 72 hours after peptide treatments. Absorbance at 490 nm is directly correlated to cell viability. Wild type functional SALL4 peptide (wt), mutant non-functional SALL4 peptide (Mut.), trichostatin A (TSA), scrambled control peptide (Scr.), wild type peptide+PTEN inhibitor SF1670 (wt+Inh.) were given to the cells at the indicated concentration. PTEN inhibitor concentration was 400 nM. (31C, 31D) Western blot analyses of the effects of peptides on PTEN, AKT, and pAKT expression on SNU-398 (31C) and SNU-387 (31D) cells 72 hours following peptide treatments. 20 μM of wt or Scr. peptide or 100 nM of TSA was used. PTEN inhibitor concentration was 400 nM. (31E) Representative images show NOD/SCID mice transplanted with Scr peptide- and wt peptide-treated SNU-398 cells (left) and the dissected subcutaneous tumors (right). Arrow indicates subcutaneous tumor. (31F) Growth curve of subcutaneous tumors (left panel) and tumor weight of tumors dissected at day 26 post-transplantation (right panel). Results are mean±s.d. n=5; * P<0.05. (31G) Representative images show NOD/SCID mice transplanted with 3 million SNU-398 cells at the left flank and treated intraperitoneally for five consecutive days with 56 mg/kg body weight TAT-Mut. peptide or 60 mg/kg body weight wt peptide (top panel) and the dissected subcutaneous tumors (bottom). (31H) Tumor weight of tumors dissected at day 18 post-transplantation and post-treatment of mice treated intraperitoneally with TAT fusion peptides as described in 5 g. Results are mean±s.d. n=5; * P<0.05.
Cell viability assay (MTT) (Invitrogen) was performed according to the manufacturer's instructions. Briefly—10000 cells were seeded in 100 ul medium in 96 well plates. The next day cells were treated as indicated on the figures. At the designated time after the treatment 20 ul of 5 mg/ml MTT solution was added to each well. After 3.5 h incubation at 37 C the medium was removed and the reaction was terminated with a solution of 4 mM HCl, 0.1% Nondet P-40 (NP40) all in isopropanol in dark on orbital shaker for […]. at room temperature. The absorbance was read at 590 nm with a reference filter of 620 nm in Spectromax M3 (ABI) spectrophotometer.
Multiple leukemic and solid tumor cancer cell lines with high or low/no SALL4 expression (FIG. 10A) were chosen to test the biological effect(s) of the wild type peptide. Wild type or scrambled peptide was delivered into tumor cells at various concentrations, and their effects on cells were evaluated 72 hours post-treatment by the MTS cell viability assay. […] The effect of wild type peptide is SALL4-specific, as it had no effect on KBM5, an AML cell line with undetectable endogenous SALL4 expression. We were surprised to see that the wild type peptide had no effect on a high SALL4-expressing endometrioid cancer cell line, AN3CA. This prompted checking whether PTEN, a gene repressed by SALL4 through its interaction with NuRD 27, was present in this cell line. According to the model herein, the function of wild type peptide requires both the expression of SALL4 and intact SALL4 downstream target genes, such as PTEN. In tumor cells with PTEN deletion, even though wild type peptide could compete with endogenous SALL4 in interacting with the HDAC complex, an anti-proliferative effect might not be observed. Therefore, expression of PTEN was evaluated in AN3CA cells along with other cell lines. While PTEN protein was present in all the other cell lines, it was absent in AN3CA cells (FIG. 10C), with reported deletion mutation of the gene in this cell line 40,41. […] Furthermore, the anti-proliferative effect also required certain downstream targets, such as PTEN.
7000 cells were seeded in each wells of a microtiter plate in 100 μL of complete medium. Cells from each treatment were seeded in duplicate. Controls using the same medium without cells were set up in parallel. […]

The subject of a further data set is PTEN/AKT pathway. Description: PTEN/AKT pathway expression in SNU-398 cells after treatment (Western blot, mRNA). The settings on record: for PTEN protein expression / phosphorylated AKT (pAKT) level: SNU-398, Western blot. Format: cell-based, human. The text has this: The induction of Pten expression was not affected when wt peptide was administrated together with a Pten inhibitor. AKT, a molecule with levels of phosphorylation controlled by the expression of Pten was affected by the wt peptide addition accordingly. […] The effect of wt peptide on pAKT was abrogated by the Pten inhibitor. […] In contrast, the protein expression level of endogenous Pten was very high in the none-SALL4 expressing SNU387 cells.
Then tested was whether this peptide could reverse the repressive effect of SALL4 on its target genes. The focus was onPTEN, since it is implicated in SALL4-mediated leukemogenesis (Yang et al., Blood, 112:805-813 (2008); Lu et al., PLoS One, 4:e5577 (2009)). In addition, it was previously reported that SALL4 could specifically bind to the PTEN promoter region in a chromatin immunoprecipitation (ChIP) assay (Lu et al., PLoS One, 4:e5577 (2009)). When SALL4 was overexpressed in 293T cells, an enrichment of SALL4 as well as decreased H3 acetylation at this binding site was observed, which correlated with decreased PTEN RNA expression (Lu et al., PLoS One, 4:e5577 (2009))). Therefore, it was hypothesized that SALL4 could recruit the HDAC/NuRD complex to repress PTEN, and that the wild type peptide would compete with endogenous SALL4 in recruiting the HDAC/NuRD complex to the PTEN promoter, and release the repression effect of SALL4 on PTEN. Furthermore, this model would predict that wild type peptide treatment of SALL4-expressing cells would lead to increased epigenetic markers of gene activation, such as H3 acetylation, at the PTEN promoter binding site, as well as an increase in PTEN expression. To test this possibility, SNU-398 cells were treated with scrambled or wild type peptide and subsequently evaluated for PTEN expression and H3 acetylation at the SALL4 binding site at the PTEN promoter region. […] Therefore, the results herein are compatible with the model that SALL4 recruits HDACs to repress PTEN expression, and blocking the SALL4-HDAC interaction with the wild type peptide results in increased expression of PTEN.
To confirm the involvement of PTEN tumor suppressor in SALL4 peptide-induced reduction of number of viable HCC cells, PTEN expression was analyzed by western blot upon drug treatment. […] Whether the increase in PTEN expression upon SALL4 peptide treatment has an effect in PI3K signalling by dephosphorylating AKT was examined.
To confirm the involvement of the PTEN tumor suppressor in the SALL4 peptide-induced reduction of HCC cell viability, PTEN expression was analyzed by western blot upon drug treatment. […] If the increase in PTEN expression has an effect in PI3K signaling was next examined. PTEN functions as a phosphatase to dephosphorylate AKT.
For orientation: A western blot detects proteins with antibodies after separation by electrophoresis.

“Also recorded” adds a separate entry of the source.

Consider “CTATTTAGCCAAAGGCAAA (short hairpin RNA, chemistry and delivery not given here, further chemistry not given here) [E5 shRNA]”, for which the “cell viability upon SALL4 knockdown” value is on record as “number of viable cells decreased” with SNU-398 cells and “decreased cell viability” in the data set with SNU-398 cells (listed as E5).
On to “Scr peptide: same 12 amino acids as the wt peptide, but in a scrambled sequence; negative control (SRMRQKIHPKIQ) [reference compound]”, for which the results for the PTEN protein expression entry with PTEN/AKT pathway, in the data set with PTEN/AKT pathway (listed as scrambled (mutant) peptide) and in the data set with PTEN/AKT pathway (listed as scrambled peptide) were “an effect not observed”, “does not exhibit the same properties” and “not observed”, respectively. In addition, the “phosphorylated AKT (pAKT) level” value with PTEN/AKT pathway was “No effect”. Further, the “cell viability / number of viable cells” value in the data set with SNU-398 cells is “remained unaffected”.
Take `CC(/C=C/C(=O)NO)=C\[C@@H](C)C(=O)c1ccc(N(C)C)cc1` [TSA, Trichostatin A, reference compound]: the PTEN protein expression result in the data set on PTEN/AKT pathway is reported as “also induced PTEN expression; also recorded: also induced PTEN upregulation”; in the data set with PTEN/AKT pathway (listed as Trichostatin A) it was “levels of PTEN were elevated”. The “phosphorylated AKT (pAKT) level” value with PTEN/AKT pathway was “significantly reduced”. In the data set with SNU-398 cells, the “cell viability / number of viable cells” value is listed as “effectively induced reduction in the number of viable HCC cells”.
For the molecule “H-MSRRKQAKPQHI-OH [wt peptide, MSRRKQAKPQHI]”, the “Pten mRNA expression” value in the data set on PTEN/AKT pathway (SNU-398) was “increased Pten mRNA expression level”. For the same molecule, the “elevation of PTEN expression level” value with PTEN/AKT pathway (SNU-398, 24 h, relative to alfa-tubulin) is listed as “More than 2 times”. In addition, the PTEN protein expression entry with PTEN/AKT pathway is “noticeably higher”; in the data set with PTEN/AKT pathway (listed as SALL4 peptide), “extensive increase in PTEN protein”; with PTEN/AKT pathway (listed as SALL4 peptide (wt)), “extensive increased in PTEN expression”; in the data set on PTEN/AKT pathway (listed as Wild type peptide), “increased PTEN protein”; with PTEN/AKT pathway (listed as wild type peptide) it was “increased PTEN expression”. Moreover, the results for the “phosphorylated AKT (pAKT) level” value in the data set on PTEN/AKT pathway (listed as SALL4 peptide) and in the data set with PTEN/AKT pathway (listed as wt) were “significant reduction of pAKT level; also recorded: marked reduction of phospho AKT protein levels” and “significantly reduced”, respectively. Moreover, the results for the “cell viability / number of viable cells” value in the data set with SNU-398 cells, with SNU-398 cells (listed as SALL4 peptide (wt)) and in the data set with SNU-398 cells (listed as wild type peptide) were “decreased cell viability; also recorded: reduced the amount of living cells in dose dependent manner”, “the number of viable cells was reduced” and “decreased cell viability”, respectively.
